In patent US20240018123A1, “COMPOUND FOR INHIBITING OR DISINTEGRATING ANDROGEN RECEPTOR, AND PHARMACEUTICAL USE THEREOF” (KOREA RESEARCH INSTITUTE OF CHEMICAL TECHNOLOGY, priority 2020, published 2024):

These molecules were tested on VCaP cells (assay: Cytotoxicity assessment (Cell-titer-glo cell viability), VCaP). Conditions: read-out: VCaP (CC50); VCaP cells, 6 days of treatment, Cell-titer-glo, vs DMSO.
`CC1(C)C(NC(=O)c2ccc(N3CC4CN(C(=O)COc5ccc6nnn(C7CCC(=O)NC7=O)c(=O)c6c5)CC4C3)cc2)C(C)(C)C1Oc1ccc(C#N)c(Cl)c1` (stereo not drawn) [Example 135, N-((1r,3r)-3-(3-chloro-4-cyanophenoxy)-2,2,4,4-tetramethylcyclobutyl)-4-(5-(2-((3-(2,6-dioxopiperidin-3-yl)-4-oxo-3,4-dihydrobenzo[d][1,2,3]triazin-6-yl)oxy)acetyl)hexahydropyrrolo[3,4-c]pyrrol-2(1H)-yl)benzamide] gave a CC50 of ~10 nM.
In the case of `CC1(C)C(NC(=O)c2ccc(N3CC4CN(C(=O)CNc5ccc6nnn(C7CCC(=O)NC7=O)c(=O)c6c5)CC4C3)cc2)C(C)(C)C1Oc1ccc(C#N)c(Cl)c1` (stereo not drawn) [Example 136, N-((1r,3r)-3-(3-chloro-4-cyanophenoxy)-2,2,4,4-tetramethylcyclobutyl)-4-(5-((3-(2,6-dioxopiperidin-3-yl)-4-oxo-3,4-dihydrobenzo[d][1,2,3]triazin-6-yl)glycyl)hexahydropyrrolo[3,4-c]pyrrol-2(1H)-yl)benzamide], the CC50 was 67.7 nM.
`CC1(C)C(NC(=O)c2ccc(N3CC4CN(CC5CCN(C(=O)COc6ccc7nnn(C8CCC(=O)NC8=O)c(=O)c7c6)CC5)CC4C3)cc2)C(C)(C)C1Oc1ccc(C#N)c(Cl)c1` (stereo not drawn) [Example 137, N-((1r,3r)-3-(3-chloro-4-cyanophenoxy)-2,2,4,4-tetramethylcyclobutyl)-4-(5-((1-(2-((3-(2,6-dioxopiperidin-3-yl)-4-oxo-3,4-dihydrobenzo[d][1,2,3]triazin-6-yl)oxy)acetyl)piperidin-4-yl)methyl)hexahydropyrrolo[3,4-c]pyrrol-2(1H)-yl)benzamide] gave a CC50 of 94 nM.
In the case of `CC1(C)C(NC(=O)c2ccc(N3CC4CN(CC5CCN(C(=O)CNc6ccc7nnn(C8CCC(=O)NC8=O)c(=O)c7c6)CC5)CC4C3)cc2)C(C)(C)C1Oc1ccc(C#N)c(Cl)c1` (stereo not drawn) [Example 138, N-((1r,3r)-3-(3-chloro-4-cyanophenoxy)-2,2,4,4-tetramethylcyclobutyl)-4-(5-((1-((3-(2,6-dioxopiperidin-3-yl)-4-oxo-3,4-dihydrobenzo[d][1,2,3]triazin-6-yl)glycyl)piperidin-4-yl)methyl)hexahydropyrrolo[3,4-c]pyrrol-2(1H)-yl)benzamide], the CC50 was 63.7 nM.
For `CC1(C)C(NC(=O)c2ccc(N3CC4CN(CC5CCN(C(=O)C6CCN(c7ccc8nnn(C9CCC(=O)NC9=O)c(=O)c8c7)CC6)CC5)CC4C3)cc2)C(C)(C)C1Oc1ccc(C#N)c(Cl)c1` (stereo not drawn) [Example 139, N-((1r,3r)-3-(3-chloro-4-cyanophenoxy)-2,2,4,4-tetramethylcyclobutyl)-4-(5-((1-(1-(3-(2,6-dioxopiperidin-3-yl)-4-oxo-3,4-dihydrobenzo[d][1,2,3]triazin-6-yl)piperidine-4-carbonyl)piperidin-4-yl)methyl)hexahydropyrrolo[3,4-c]pyrrol-2(1H)-yl)benzamide], the CC50 was 69.5 nM.
Molecule `CC1(C)[C@H](NC(=O)c2ccc(N3CC4CN(CC5CCN(C(=O)C6CN(c7ccc8nnn(C9CCC(=O)NC9=O)c(=O)c8c7)C6)CC5)CC4C3)cc2)C(C)(C)[C@H]1Oc1ccc(C#N)c(Cl)c1` (stereo partly drawn) [Example 140, N-((1r,3r)-3-(3-chloro-4-cyanophenoxy)-2,2,4,4-tetramethylcyclobutyl)-4-(5-((1-(1-(3-(2,6-dioxopiperidin-3-yl)-4-oxo-3,4-dihydrobenzo[d][1,2,3]triazin-6-yl)azetidine-3-carbonyl)piperidin-4-yl)methyl)hexahydropyrrolo[3,4-c]pyrrol-2(1H)-yl)benzamide] has a CC50 of 30 nM.
Work on `CC1(C)C(NC(=O)c2ccc(C#CC3CCN(C(=O)C4CCN(c5ccc6nnn(C7CCC(=O)NC7=O)c(=O)c6c5)CC4)CC3)cc2)C(C)(C)C1Oc1ccc(C#N)c(Cl)c1` (stereo not drawn) [Example 141, N-((1r,3r)-3-(3-chloro-4-cyanophenoxy)-2,2,4,4-tetramethylcyclobutyl)-4-((1-(1-(3-(2,6-dioxopiperidin-3-yl)-4-oxo-3,4-dihydrobenzo[d][1,2,3]triazin-6-yl)piperidine-4-carbonyl)piperidin-4-yl)ethynyl)benzamide] yielded a CC50 of 11.5 nM.
Molecule `CC1(C)C(NC(=O)c2ccc(C#CC3CCN(c4ccc5nnn(C6CCC(=O)NC6=O)c(=O)c5c4)CC3)cc2)C(C)(C)C1Oc1ccc(C#N)c(Cl)c1` (stereo not drawn) [Example 142, N-((1r,3r)-3-(3-chloro-4-cyanophenoxy)-2,2,4,4-tetramethylcyclobutyl)-4-((1-(3-(2,6-dioxopiperidin-3-yl)-4-oxo-3,4-dihydrobenzo[d][1,2,3]triazin-6-yl)piperidin-4-yl)ethynyl)benzamide] has a CC50 of 7.1 nM.
Work on `CC1(C)[C@H](NC(=O)c2cnc(N3CCN(CC4CCN(C(=O)C5CCN(c6ccc7nnn(C8CCC(=O)NC8=O)c(=O)c7c6)CC5)CC4)CC3)nc2)C(C)(C)[C@H]1Oc1ccc(C#N)c(Cl)c1` (stereo partly drawn) [Example 145, N-((1r,3r)-3-(3-chloro-4-cyanophenoxy)-2,2,4,4-tetramethylcyclobutyl)-2-(4-((1-(1-(3-(2,6-dioxopiperidin-3-yl)-4-oxo-3,4-dihydrobenzo[d][1,2,3]triazin-6-yl)piperidine-4-carbonyl)piperidin-4-yl)methyl)piperazin-1-yl)pyrimidine-5-carboxamide] yielded a CC50 of ~10 nM.
`CC1(C)C(NC(=O)c2cnc(N3CCN(CC4CCN(C(=O)C5CN(c6ccc7nnn(C8CCC(=O)NC8=O)c(=O)c7c6)C5)CC4)CC3)nc2)C(C)(C)C1Oc1ccc(C#N)c(Cl)c1` (stereo not drawn) [Example 146, N-((1r,3r)-3-(3-chloro-4-cyanophenoxy)-2,2,4,4-tetramethylcyclobutyl)-2-(4-((1-(1-(3-(2,6-dioxopiperidin-3-yl)-4-oxo-3,4-dihydrobenzo[d][1,2,3]triazin-6-yl)azetidine-3-carbonyl)piperidin-4-yl)methyl)piperazin-1-yl)pyrimidine-5-carboxamide] was tested, and the CC50 was ~10 nM.
Work on `CC1(C)C(NC(=O)c2cnc(N3CCN(CC4CCN(C(=O)CNc5ccc6nnn(C7CCC(=O)NC7=O)c(=O)c6c5)CC4)CC3)nc2)C(C)(C)C1Oc1ccc(C#N)c(Cl)c1` (stereo not drawn) [Example 147, N-((1r,3r)-3-(3-chloro-4-cyanophenoxy)-2,2,4,4-tetramethylcyclobutyl)-2-(4-((1-((3-(2,6-dioxopiperidin-3-yl)-4-oxo-3,4-dihydrobenzo[d][1,2,3]triazin-6-yl)glycyl)piperidin-4-yl)methyl)piperazin-1-yl)pyrimidine-5-carboxamide] yielded a CC50 of ~10 nM.
With `CC1(C)C(NC(=O)c2cnc(N3CCN(CC4CCN(C(=O)COc5ccc6nnn(C7CCC(=O)NC7=O)c(=O)c6c5)CC4)CC3)nc2)C(C)(C)C1Oc1ccc(C#N)c(Cl)c1` (stereo not drawn) [Example 148, N-((1r,3r)-3-(3-chloro-4-cyanophenoxy)-2,2,4,4-tetramethylcyclobutyl)-2-(4-((1-(2-((3-(2,6-dioxopiperidin-3-yl)-4-oxo-3,4-dihydrobenzo[d][1,2,3]triazin-6-yl)oxy)acetyl)piperidin-4-yl)methyl)piperazin-1-yl)pyrimidine-5-carboxamide] the CC50 was ~10 nM.
For `CC1(C)[C@H](NC(=O)c2ccc(-n3cc(CNc4ccc5nnn(C6CCC(=O)NC6=O)c(=O)c5c4)nn3)cc2)C(C)(C)[C@H]1Oc1ccc(C#N)c(Cl)c1` (stereo partly drawn) [Example 149, N-((1r,3r)-3-(3-chloro-4-cyanophenoxy)-2,2,4,4-tetramethylcyclobutyl)-4-(4-(((3-(2,6-dioxopiperidin-3-yl)-4-oxo-3,4-dihydrobenzo[d][1,2,3]triazin-6-yl)amino)methyl)-1H-1,2,3-triazol-1-yl)benzamide], the CC50 was > 10000 nM.
`CC1(C)C(NC(=O)c2ccc(-n3cc(CNC(=O)C4CCN(c5ccc6nnn(C7CCC(=O)NC7=O)c(=O)c6c5)CC4)nn3)cc2)C(C)(C)C1Oc1ccc(C#N)c(Cl)c1` (stereo not drawn) [Example 150, N-((1-(4-(((1r,3r)-3-(3-chloro-4-cyanophenoxy)-2,2,4,4-tetramethylcyclobutyl)carbamoyl)phenyl)-1H-1,2,3-triazol-4-yl)methyl)-1-(3-(2,6-dioxopiperidin-3-yl)-4-oxo-3,4-dihydrobenzo[d][1,2,3]triazin-6-yl)piperidine-4-carboxamide] was tested, and the CC50 was 24.4 nM.
With `CC1(C)C(NC(=O)c2ccc(-n3cc(CNC(=O)C4CN(c5ccc6nnn(C7CCC(=O)NC7=O)c(=O)c6c5)C4)nn3)cc2)C(C)(C)C1Oc1ccc(C#N)c(Cl)c1` (stereo not drawn) [Example 151, N-((1-(4-(((1r,3r)-3-(3-chloro-4-cyanophenoxy)-2,2,4,4-tetramethylcyclobutyl)carbamoyl)phenyl)-1H-1,2,3-triazol-4-yl)methyl)-1-(3-(2,6-dioxopiperidin-3-yl)-4-oxo-3,4-dihydrobenzo[d][1,2,3]triazin-6-yl)azetidine-3-carboxamide] the CC50 was 25.6 nM.
In the case of `CC1(C)C(NC(=O)c2ccc(-n3cc(CNC(=O)CNc4ccc5nnn(C6CCC(=O)NC6=O)c(=O)c5c4)nn3)cc2)C(C)(C)C1Oc1ccc(C#N)c(Cl)c1` (stereo not drawn) [Example 152, N-((1r,3r)-3-(3-chloro-4-cyanophenoxy)-2,2,4,4-tetramethylcyclobutyl)-4-(4-((2-((3-(2,6-dioxopiperidin-3-yl)-4-oxo-3,4-dihydrobenzo[d][1,2,3]triazin-6-yl)amino)acetamido)methyl)-1H-1,2,3-triazol-1-yl)benzamide], the CC50 was 233 nM.
`CC1(C)C(NC(=O)c2ccc(-n3cc(CCNc4ccc5nnn(C6CCC(=O)NC6=O)c(=O)c5c4)nn3)cc2)C(C)(C)C1Oc1ccc(C#N)c(Cl)c1` (stereo not drawn) [Example 153, N-((1r,3r)-3-(3-chloro-4-cyanophenoxy)-2,2,4,4-tetramethylcyclobutyl)-4-(4-(2-((3-(2,6-dioxopiperidin-3-yl)-4-oxo-3,4-dihydrobenzo[d][1,2,3]triazin-6-yl)amino)ethyl)-1H-1,2,3-triazol-1-yl)benzamide] showed a CC50 of 45.4 nM.
For `CC1(C)C(NC(=O)c2ccc(-n3cc(CCNC(=O)C4CCN(c5ccc6nnn(C7CCC(=O)NC7=O)c(=O)c6c5)CC4)nn3)cc2)C(C)(C)C1Oc1ccc(C#N)c(Cl)c1` (stereo not drawn) [Example 154, N-(2-(1-(4-(((1r,3r)-3-(3-chloro-4-cyanophenoxy)-2,2,4,4-tetramethylcyclobutyl)carbamoyl)phenyl)-1H-1,2,3-triazol-4-yl)ethyl)-1-(3-(2,6-dioxopiperidin-3-yl)-4-oxo-3,4-dihydrobenzo[d][1,2,3]triazin-6-yl)piperidine-4-carboxamide], the CC50 was 41.6 nM.
